Measured values as given in patent US10800791B2, “Triazole ACC inhibitors and uses thereof” (Gilead Apollo, LLC, priority 2015, dated 2020).
≈ marks a conversion by molar mass, not a printed value. Read-outs that look alike come from different tables or passages of the source.

Tests used:
human (hACC2) = human (hACC2) (Homo sapiens, UniProt O00763); test: In vitro ACC inhibition assay (ADP-Glo), hACC2; type: biochemical; conditions: 5 nM ACC2, 20 μM ATP, 20 μM acetyl-CoA
Method: The detailed procedure is as follows. […] 10 μL ADP glo reagent was added. […] 20 μL kinase detection reagent was added.

Rhizoctonia solani (Rs) = test: Growth inhibition assay of fungal pathogens, Rs; type: cell-based; conditions: 48 h
Method: Compounds of the present invention were evaluated in a growth inhibition assay to determine the ability to control the growth of fungal pathogens, such as Botrtyis cinerea (Bc), Collectotrichum graminicola (Cg), Diplodia maydis (Dm), Fusarium moniliforme (Fm), Fusarium virguliforme (Fv), Phytophthora capsici (Pc), Rhizoctonia solani (Rs), and Septoria tritici (St).
Compounds to be tested were dissolved in DMSO at 2.5 mg/ml to produce compound stock solutions (“stocks”). Stocks were diluted with DMSO by a five-fold dilution in a 96-well stock plate, and two sets of final concentrations of 50, 10, and 2 ppm or 2, 0.4, and 0.08 ppm were obtained in vitro. A set of positive controls was also prepared, with various concentrations of Soraphen (2, 0.4, and 0.08 ppm), Metalaxyl (1.1, 0.22, and 0.04 ppm), and Metconazole (2, 0.4, and 0.08 ppm or 0.2, 0.04, and 0.008 ppm) after the five-fold dilutions. Negative controls on each plate included 2% DMSO, water, and a blank (media+2% DMSO).
Fungal spores were isolated from previously sub-cultured plates of Botrtyis cinerea (Bc), Collectotrichum graminicola (Cg), Diplodia maydis (Dm), Fusarium moniliforme (Fm), Fusarium virguliforme (Fv), Phytophthora capsici (Pc), and Septoria tritici (St). The isolated spores were diluted to individual concentrations with a 17% V8 liquid media. For Rhizoctonia solani (Rs) and Pythium irregulare, 1.5 mm mycelial plugs were used in place of spores and/4 Potato Dextrose Broth (PDB) was used for dilution. The spore concentrations and plug sizes were based on growth curves generated at 48 hours for each pathogen.
In a second 96-well plate, the spores or mycelial plugs, media, diluted compound solutions, and controls were combined. Once the compound was added, a true final concentration of compound in each well was measured by an OD600 reading, which adjusted for any compound precipitation that might have occurred in the well. Plate readings were repeated at both 24 and 48 hours. The blank negative control was used as a background subtraction. Additional visual ratings were performed at both 24 and 48 hours for checking on precipitation and confirming efficacy. Visual and OD600 ratings of the compounds at 48 hours were compared to the 2% DMSO negative control, and the percent of pathogen growth inhibition was determined based on those values.

C. albicans = test: Antifungal Activity Assay (broth microtiter MIC), C. albicans; type: cell-based, Candida albicans; conditions: Candida albicans, ATCC90028, 48 h, Table 3b (additional results); ATCC 90028; 3 replicates; MIC recorded at 48 h; read-out: MIC, C. albicans ATCC 90028
In short: (§1)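 Endpoint: lowest concentration visibly inhibiting growth relative to control after 48 h. Inoculum of 2.5×10^3 CFU/mL final in RPMI 1640+MOPS, prepared from overnight 35° C agar cultures; test compounds diluted in water to 128 μg/mL before plating.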

C. krusei = test: Antifungal Activity Assay (broth microtiter MIC), C. krusei; type: cell-based, Candida krusei; conditions: Pichia kudriavzevii, ATCC6258, 48 h, Table 3b (additional results); ATCC 6258; 3 replicates; MIC recorded at 48 h; read-out: MIC, C. krusei ATCC 6258
In short: as §1

C. parapsilosis = test: Antifungal Activity Assay (broth microtiter MIC), C. parapsilosis; type: cell-based, Candida parapsilosis; conditions: Lodderomyces parapsilosis, ATCC22019, 48 h, Table 3b (additional results); ATCC 22019; 3 replicates; MIC recorded at 48 h; read-out: MIC, C. parapsilosis ATCC 22019
In short: as §1

fungal (fACC2) = fungal (fACC2) (UniProt Q00955); conditions: read-out: fACC2 (in vitro ACC2 Inhibition Assay, IC50); Table 2b, additional results; ADP-Glo, 5 nM ACC2, 20 μM ATP, 20 μM acetyl-CoA
[1] = read-out: Concentration at 90% Inhibition Rs, Rhizoctonia solani, mycelial plugs, growth inhibition at 48 hours vs 2% DMSO control
[2] = read-out: Concentration at 90% Inhibition Rs, Rhizoctonia solani, mycelial plugs, growth inhibition vs 2% DMSO control at 48 hours
[3] = mycelial plugs, growth inhibition at 48 hours vs 2% DMSO control, read-out: Concentration at 90% Inhibition Rs
[4] = mycelial plugs, growth inhibition vs 2% DMSO control at 48 hours, read-out: Concentration at 90% Inhibition Rs

Chain of human (hACC2) (O00763 whole entry): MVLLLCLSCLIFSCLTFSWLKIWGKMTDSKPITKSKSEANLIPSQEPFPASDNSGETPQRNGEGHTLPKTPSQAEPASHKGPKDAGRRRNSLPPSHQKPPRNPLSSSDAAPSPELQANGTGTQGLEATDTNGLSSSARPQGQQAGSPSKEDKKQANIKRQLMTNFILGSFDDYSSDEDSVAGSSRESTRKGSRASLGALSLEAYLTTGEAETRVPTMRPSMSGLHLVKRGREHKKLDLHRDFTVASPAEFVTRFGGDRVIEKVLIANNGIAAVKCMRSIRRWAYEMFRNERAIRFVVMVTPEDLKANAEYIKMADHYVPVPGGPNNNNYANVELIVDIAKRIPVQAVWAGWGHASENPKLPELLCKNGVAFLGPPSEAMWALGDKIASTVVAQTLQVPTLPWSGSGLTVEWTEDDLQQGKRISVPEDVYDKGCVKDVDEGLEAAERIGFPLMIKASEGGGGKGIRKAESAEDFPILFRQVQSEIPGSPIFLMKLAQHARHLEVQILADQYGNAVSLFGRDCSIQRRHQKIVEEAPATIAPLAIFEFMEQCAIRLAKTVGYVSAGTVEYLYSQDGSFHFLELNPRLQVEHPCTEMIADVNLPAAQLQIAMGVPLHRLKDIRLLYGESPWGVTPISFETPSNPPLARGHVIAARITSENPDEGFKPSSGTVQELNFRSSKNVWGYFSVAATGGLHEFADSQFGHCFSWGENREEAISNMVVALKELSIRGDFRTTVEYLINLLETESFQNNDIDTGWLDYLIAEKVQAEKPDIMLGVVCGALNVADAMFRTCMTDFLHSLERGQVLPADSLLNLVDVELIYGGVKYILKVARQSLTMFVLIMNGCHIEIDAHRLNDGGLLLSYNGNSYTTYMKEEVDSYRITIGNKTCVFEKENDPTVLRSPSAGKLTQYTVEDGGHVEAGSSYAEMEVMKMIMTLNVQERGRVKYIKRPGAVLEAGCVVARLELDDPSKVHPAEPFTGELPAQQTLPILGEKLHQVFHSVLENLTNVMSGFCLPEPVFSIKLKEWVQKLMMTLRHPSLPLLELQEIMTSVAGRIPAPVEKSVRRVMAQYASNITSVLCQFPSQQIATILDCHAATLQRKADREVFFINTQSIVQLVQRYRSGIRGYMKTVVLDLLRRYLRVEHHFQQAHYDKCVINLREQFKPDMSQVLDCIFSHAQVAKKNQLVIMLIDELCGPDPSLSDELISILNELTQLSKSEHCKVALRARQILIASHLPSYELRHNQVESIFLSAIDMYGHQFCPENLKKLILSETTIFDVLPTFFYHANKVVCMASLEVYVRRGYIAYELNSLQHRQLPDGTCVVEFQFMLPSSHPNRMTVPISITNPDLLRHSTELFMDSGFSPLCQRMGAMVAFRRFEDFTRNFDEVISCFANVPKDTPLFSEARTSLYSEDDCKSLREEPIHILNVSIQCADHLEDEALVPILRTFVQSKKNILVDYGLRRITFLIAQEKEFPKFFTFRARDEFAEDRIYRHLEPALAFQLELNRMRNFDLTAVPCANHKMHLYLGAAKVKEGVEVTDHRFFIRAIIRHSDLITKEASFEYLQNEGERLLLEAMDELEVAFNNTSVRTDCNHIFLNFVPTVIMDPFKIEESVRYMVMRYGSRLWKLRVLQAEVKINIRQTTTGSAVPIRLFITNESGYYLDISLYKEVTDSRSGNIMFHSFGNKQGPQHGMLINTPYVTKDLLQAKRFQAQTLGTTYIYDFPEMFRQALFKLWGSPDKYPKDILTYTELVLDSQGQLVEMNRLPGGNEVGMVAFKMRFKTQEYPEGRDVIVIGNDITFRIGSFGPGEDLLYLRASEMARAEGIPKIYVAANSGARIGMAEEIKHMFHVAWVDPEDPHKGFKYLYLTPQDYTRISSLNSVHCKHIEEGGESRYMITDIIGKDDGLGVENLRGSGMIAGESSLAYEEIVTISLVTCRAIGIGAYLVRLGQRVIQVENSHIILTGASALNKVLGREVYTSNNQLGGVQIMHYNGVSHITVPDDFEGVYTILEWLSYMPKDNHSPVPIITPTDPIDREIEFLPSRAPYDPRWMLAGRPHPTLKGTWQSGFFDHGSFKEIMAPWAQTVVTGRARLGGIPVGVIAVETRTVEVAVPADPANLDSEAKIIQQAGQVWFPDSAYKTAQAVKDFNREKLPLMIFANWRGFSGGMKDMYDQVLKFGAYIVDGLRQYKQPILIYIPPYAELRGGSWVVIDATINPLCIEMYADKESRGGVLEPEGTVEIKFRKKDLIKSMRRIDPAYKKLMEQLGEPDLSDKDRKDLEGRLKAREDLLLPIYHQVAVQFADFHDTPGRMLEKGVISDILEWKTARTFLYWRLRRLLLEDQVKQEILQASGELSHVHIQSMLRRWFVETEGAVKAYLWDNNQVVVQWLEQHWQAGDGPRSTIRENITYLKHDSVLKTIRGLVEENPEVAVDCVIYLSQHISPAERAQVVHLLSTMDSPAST
Chain of fungal (fACC2) (Q00955 whole entry): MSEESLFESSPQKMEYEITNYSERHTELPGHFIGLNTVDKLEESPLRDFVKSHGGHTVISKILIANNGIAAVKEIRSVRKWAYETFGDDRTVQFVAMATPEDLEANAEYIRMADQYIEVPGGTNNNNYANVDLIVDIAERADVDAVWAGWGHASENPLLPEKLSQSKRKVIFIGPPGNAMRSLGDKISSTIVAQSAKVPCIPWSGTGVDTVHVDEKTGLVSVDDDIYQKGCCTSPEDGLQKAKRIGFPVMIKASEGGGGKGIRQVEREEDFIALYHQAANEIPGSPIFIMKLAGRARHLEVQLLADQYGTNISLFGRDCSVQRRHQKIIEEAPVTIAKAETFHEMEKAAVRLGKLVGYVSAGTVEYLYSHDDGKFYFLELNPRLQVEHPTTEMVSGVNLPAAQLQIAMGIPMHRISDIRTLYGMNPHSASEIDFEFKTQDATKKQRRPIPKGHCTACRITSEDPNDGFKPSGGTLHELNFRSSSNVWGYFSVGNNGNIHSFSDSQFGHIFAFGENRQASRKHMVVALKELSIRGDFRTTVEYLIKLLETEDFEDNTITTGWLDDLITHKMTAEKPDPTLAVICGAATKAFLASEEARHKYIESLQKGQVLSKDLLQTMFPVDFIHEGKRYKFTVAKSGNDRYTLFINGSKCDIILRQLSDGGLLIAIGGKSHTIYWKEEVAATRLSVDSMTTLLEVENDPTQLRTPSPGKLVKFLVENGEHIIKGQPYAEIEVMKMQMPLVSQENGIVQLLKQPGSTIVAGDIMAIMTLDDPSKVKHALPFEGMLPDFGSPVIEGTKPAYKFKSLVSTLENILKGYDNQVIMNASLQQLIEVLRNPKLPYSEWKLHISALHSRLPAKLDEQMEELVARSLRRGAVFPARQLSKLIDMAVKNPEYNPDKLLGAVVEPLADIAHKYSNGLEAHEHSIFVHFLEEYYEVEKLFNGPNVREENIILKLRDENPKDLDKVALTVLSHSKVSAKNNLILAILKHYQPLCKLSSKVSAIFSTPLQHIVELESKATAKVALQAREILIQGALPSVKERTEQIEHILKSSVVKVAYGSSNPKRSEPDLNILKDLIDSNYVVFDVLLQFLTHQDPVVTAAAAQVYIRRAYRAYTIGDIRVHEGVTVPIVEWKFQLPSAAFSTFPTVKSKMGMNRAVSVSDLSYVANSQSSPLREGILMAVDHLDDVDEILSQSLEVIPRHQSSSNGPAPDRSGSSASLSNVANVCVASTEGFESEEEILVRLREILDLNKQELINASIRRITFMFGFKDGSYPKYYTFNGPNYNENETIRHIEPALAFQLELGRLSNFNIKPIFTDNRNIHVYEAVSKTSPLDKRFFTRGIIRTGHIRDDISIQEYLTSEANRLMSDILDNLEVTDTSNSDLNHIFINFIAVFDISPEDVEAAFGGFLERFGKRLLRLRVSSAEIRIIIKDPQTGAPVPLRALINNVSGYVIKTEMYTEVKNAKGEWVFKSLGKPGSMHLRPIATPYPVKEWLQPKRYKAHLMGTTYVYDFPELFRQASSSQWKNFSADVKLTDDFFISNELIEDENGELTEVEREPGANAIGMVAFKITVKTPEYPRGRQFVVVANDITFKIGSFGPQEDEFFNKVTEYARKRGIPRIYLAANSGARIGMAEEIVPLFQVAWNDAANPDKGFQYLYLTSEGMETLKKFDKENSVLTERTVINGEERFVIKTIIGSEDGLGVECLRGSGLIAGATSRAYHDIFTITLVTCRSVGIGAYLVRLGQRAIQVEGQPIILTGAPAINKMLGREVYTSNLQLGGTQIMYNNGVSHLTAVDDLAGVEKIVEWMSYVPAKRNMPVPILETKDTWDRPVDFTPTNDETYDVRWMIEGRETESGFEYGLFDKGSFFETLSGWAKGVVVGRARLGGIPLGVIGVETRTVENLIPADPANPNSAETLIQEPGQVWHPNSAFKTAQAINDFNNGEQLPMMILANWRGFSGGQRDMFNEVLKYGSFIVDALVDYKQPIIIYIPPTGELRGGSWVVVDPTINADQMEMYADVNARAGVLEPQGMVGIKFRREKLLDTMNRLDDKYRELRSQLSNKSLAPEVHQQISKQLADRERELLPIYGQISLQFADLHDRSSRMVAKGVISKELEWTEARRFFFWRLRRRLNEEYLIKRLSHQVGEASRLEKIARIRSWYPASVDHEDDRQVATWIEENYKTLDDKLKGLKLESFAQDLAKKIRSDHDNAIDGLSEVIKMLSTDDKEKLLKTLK

SMILES	IC50 (human (hACC2); Table 2a)	IC50 (human (hACC2); Table 2b, additional results)	IC90 (Rhizoctonia solani (Rs); [1])	IC90 (Rhizoctonia solani (Rs); [2])	IC90 (Rhizoctonia solani (Rs); [3])	IC90 (Rhizoctonia solani (Rs); [4])	MIC (C. albicans)	MIC (C. krusei)	MIC (C. parapsilosis)	IC50 (fungal (fACC2))
COc1ccc(F)cc1[C@H](Cn1c(=O)n(C(C)(C)C(=O)NC(C)C)c(=O)c2c(C)c(-n3nccn3)sc21)OCC(C)C [Compound I-10, (R)-2-(1-(2-(5-fluoro-2-methoxyphenyl)-2-isobutoxyethyl)-5-methyl-2,4-dioxo-6-(2H-1,2,3-triazol-2-yl)-1,4-dihydrothieno[2,3-d]pyrimidin-3(2H)-yl)-N-isopropyl-2-methylpropanamide]	10 to 40 nM	10 to 40 nM	0.4 µg/mL (≈ 0.666 µM)	0.4 µg/mL (≈ 0.666 µM)	–	–	–	–	–	–
COc1ccccc1[C@H](Cn1c(=O)n(C(C)(C)C(=O)NCC(C)C)c(=O)c2c(C)c(-n3nccn3)sc21)OC1CCOCC1 [Compound I-13, (R)—N-isobutyl-2-(1-(2-(2-methoxyphenyl)-2-((tetrahydro-2H-pyran-4-yl)oxy)ethyl)-5-methyl-2,4-dioxo-6-(2H-1,2,3-triazol-2-yl)-1,4-dihydrothieno[2,3-d]pyrimidin-3(2H)-yl)-2-methylpropanamide]	5 to 10 nM	5 to 10 nM	–	–	0.08 µg/mL (≈ 0.128 µM)	0.08 µg/mL (≈ 0.128 µM)	–	–	–	–
COc1ccccc1[C@H](Cn1c(=O)n(C(C)(C)C(=O)NC(C)C)c(=O)c2c(C)c(-n3nccn3)sc21)OC1CCOCC1 [Compound I-16, (R)—N-isopropyl-2-(1-(2-(2-methoxyphenyl)-2-((tetrahydro-2H-pyran-4-yl)oxy)ethyl)-5-methyl-2,4-dioxo-6-(2H-1,2,3-triazol-2-yl)-1,4-dihydrothieno[2,3-d]pyrimidin-3(2H)-yl)-2-methylpropanamide]	5 to 10 nM	5 to 10 nM	0.4 µg/mL (≈ 0.655 µM)	0.4 µg/mL (≈ 0.655 µM)	–	–	–	–	–	–
COc1ccccc1[C@H](Cn1c(=O)n(C(C)(C)C(=O)N2CCCCC2)c(=O)c2c(C)c(-n3nccn3)sc21)OC1CCOCC1 [Compound I-17, (R)-1-(2-(2-methoxyphenyl)-2-((tetrahydro-2H-pyran-4-yl)oxy)ethyl)-5-methyl-3-(2-methyl-1-oxo-1-(piperidin-1-yl)propan-2-yl)-6-(2H-1,2,3-triazol-2-yl)thieno[2,3-d]pyrimidine-2,4(1H,3H)-dione]	5 to 10 nM	5 to 10 nM	0.08 µg/mL (≈ 0.126 µM)	0.08 µg/mL (≈ 0.126 µM)	–	–	–	–	–	–
COc1ccccc1[C@H](Cn1c(=O)n(C(C)(C)C(=O)N2CCCC2)c(=O)c2c(C)c(-n3nccn3)sc21)OC1CCOCC1 [Compound I-18, (R)-1-(2-(2-methoxyphenyl)-2-((tetrahydro-2H-pyran-4-yl)oxy)ethyl)-5-methyl-3-(2-methyl-1-oxo-1-(pyrrolidin-1-yl)propan-2-yl)-6-(2H-1,2,3-triazol-2-yl)thieno[2,3-d]pyrimidine-2,4(1H,3H)-dione]	5 to 10 nM	5 to 10 nM	–	–	0.08 µg/mL (≈ 0.128 µM)	0.08 µg/mL (≈ 0.128 µM)	–	–	–	–
COc1ccccc1[C@H](Cn1c(=O)n(C(C)(C)C(=O)NC2CCC2)c(=O)c2c(C)c(-n3nccn3)sc21)OC1CCOCC1 [Compound I-20, (R)—N-cyclobutyl-2-(1-(2-(2-methoxyphenyl)-2-((tetrahydro-2H-pyran-4-yl)oxy)ethyl)-5-methyl-2,4-dioxo-6-(2H-1,2,3-triazol-2-yl)-1,4-dihydrothieno[2,3-d]pyrimidin-3(2H)-yl)-2-methylpropanamide]	5 to 10 nM	5 to 10 nM	–	–	0.08 µg/mL (≈ 0.128 µM)	0.08 µg/mL (≈ 0.128 µM)	–	–	–	–
COc1ccccc1[C@H](Cn1c(=O)n(C(C)(C)C(=O)NC2CCCCC2)c(=O)c2c(C)c(-n3nccn3)sc21)OC1CCOCC1 [Compound I-21, (R)—N-cyclohexyl-2-(1-(2-(2-methoxyphenyl)-2-((tetra-hydro-2H-pyran-4-yl)oxy)ethyl)-5-methyl-2,4-dioxo-6-(2H-1,2,3-triazol-2-yl)-1,4-dihydrothieno[2,3-d]pyrimidin-3(2H)-yl)-2-methylpropanamide]	5 to 10 nM	5 to 10 nM	0.4 µg/mL (≈ 0.615 µM)	0.4 µg/mL (≈ 0.615 µM)	–	–	–	–	–	–
CCNC(=O)C(C)(C)n1c(=O)c2c(C)c(-n3nccn3)sc2n(C[C@H](OC2CCOCC2)c2cc(F)ccc2OC)c1=O [Compound I-22, (R)—N-ethyl-2-(1-(2-(5-fluoro-2-methoxyphenyl)-2-((tetrahydro-2H-pyran-4-yl)oxy)ethyl)-5-methyl-2,4-dioxo-6-(2H-1,2,3-triazol-2-yl)-1,4-dihydrothieno[2,3-d]pyrimidin-3(2H)-yl)-2-methylpropanamide]	5 to 10 nM	5 to 10 nM	–	–	0.4 µg/mL (≈ 0.651 µM)	0.4 µg/mL (≈ 0.651 µM)	–	–	–	–
COc1ccc(F)cc1[C@H](Cn1c(=O)n(C(C)(C)C(=O)NC(C)C)c(=O)c2c(C)c(-n3nccn3)sc21)OC1CCOCC1 [Compound I-23, (R)-2-(1-(2-(5-fluoro-2-methoxyphenyl)-2-((tetrahydro-2H-pyran-4-yl)oxy)ethyl)-5-methyl-2,4-dioxo-6-(2H-1,2,3-triazol-2-yl)-1,4-dihydro-thieno[2,3-d]pyrimidin-3(2H)-yl)-N-isopropyl-2-methylpropanamide]	5 to 10 nM	5 to 10 nM	0.08 µg/mL (≈ 0.127 µM)	0.08 µg/mL (≈ 0.127 µM)	–	–	–	–	–	–
COc1ccc(F)cc1[C@H](Cn1c(=O)n(C(C)(C)C(=O)N2CCCC2)c(=O)c2c(C)c(-n3nccn3)sc21)OC1CCOCC1 [Compound I-25]	5 to 10 nM	5 to 10 nM	–	–	0.08 µg/mL (≈ 0.125 µM)	0.08 µg/mL (≈ 0.125 µM)	–	–	–	–
COc1ccc(F)cc1[C@H](Cn1c(=O)n(CC(=O)N2CCCC2)c(=O)c2c(C)c(-n3nccn3)sc21)OC(C)C [Compound I-36, (R)-1-(2-(5-fluoro-2-methoxyphenyl)-2-isopropoxyethyl)-5-methyl-3-(2-oxo-2-(pyrrolidin-1-yl)ethyl)-6-(2H-1,2,3-triazol-2-yl)thieno[2,3-d]pyrimidine-2,4(1H,3H)-dione]	1 to 5 nM	1 to 5 nM	–	–	0.4 µg/mL (≈ 0.701 µM)	0.4 µg/mL (≈ 0.701 µM)	–	–	–	–
COc1ccc(F)cc1[C@H](Cn1c(=O)n([C@@H](C)C(=O)NC(C)C)c(=O)c2c(C)c(-n3nccn3)sc21)OC(C)C [Compound I-37, (S)-2-(1-((R)-2-(5-fluoro-2-methoxyphenyl)-2-isopropoxyethyl)-5-methyl-2,4-dioxo-6-(2H-1,2,3-triazol-2-yl)-1,4-dihydrothieno[2,3-d]pyrimidin-3(2H)-yl)-N-isopropylpropanamide]	5 to 10 nM	5 to 10 nM	0.4 µg/mL (≈ 0.698 µM)	0.4 µg/mL (≈ 0.698 µM)	–	–	–	–	–	–
COc1ccc(F)cc1[C@H](Cn1c(=O)n([C@H](C)C(=O)NC(C)C)c(=O)c2c(C)c(-n3nccn3)sc21)OC(C)C [Compound I-38, (R)-2-(1-((R)-2-(5-fluoro-2-methoxyphenyl)-2-isopropoxy-ethyl)-5-methyl-2,4-dioxo-6-(2H-1,2,3-triazol-2-yl)-1,4-dihydrothieno[2,3-d]pyrimidin-3(2H)-yl)-N-isopropylpropanamide]	5 to 10 nM	5 to 10 nM	0.4 µg/mL (≈ 0.698 µM)	0.4 µg/mL (≈ 0.698 µM)	–	–	–	–	–	–
COc1ccc(F)cc1[C@H](Cn1c(=O)n(C(C)(C)C(=O)NC(C)C)c(=O)c2c(C)c(-n3nccn3)sc21)OC[C@H](C)C(=O)O [Compound I-273]	–	> 40 nM	–	–	–	–	0.25 to 1 µg/mL (≈ 0.396 to 1.59 µM)	0.25 to 1 µg/mL (≈ 0.396 to 1.59 µM)	1.01 to 2 µg/mL (≈ 1.6 to 3.17 µM)	0.3 to 1 nM
COc1ccc(F)cc1[C@H](Cn1c(=O)n(C(C)(C)C(=O)NC(C)C)c(=O)c2c(C)c(-n3nccn3)sc21)OC[C@@H](C)C(=O)O [Compound I-274]	–	> 40 nM	–	–	–	–	0.25 to 1 µg/mL (≈ 0.396 to 1.59 µM)	0.25 to 1 µg/mL (≈ 0.396 to 1.59 µM)	1.01 to 2 µg/mL (≈ 1.6 to 3.17 µM)	0.3 to 1 nM
